Laboratory results from patent publication US4965280A, “Antifungal carbinols” (E. I. Du Pont de Nemours and Company, priority 1989, dated 1990).

Key:
Assay in all cases: Test E
REDROOT PIGWEED = assay type: in vivo, Amaranthus retroflexus
WILD OATS = assay type: in vivo, Avena fatua
BLACKGRASS = assay type: in vivo, Alopercurus mysuroides
From the text: Seeds of the following crops and weeds are sown into 15 cm pots containing Sassafras sandy loam soil: wheat (Triticum aestivum cv. Park), barley (Hordeum vulgare cv. Bonanza), sugarbeet (Beta vulgaris cv. USH-11), rapeseed (Brassica napus cv. Jet Neuf), black nightshade (Solanum nigrum), chickweed (Stellaria media), lambsquarter (Chenopodium album), Galium aparine, knotweed (Polygonum aviculare), Kochia scoparia, Matricaria indora, redroot pigweed (Amaranthus retroflexus), smartweed (Polygonum persicaria), speedwell (Veronica persica), wild buckwheat (Polygonum convolvulus), wild mustard (Brassica spp.), wild radish (Raphanus raphanistrum), annual bluegrass (PO annua), annual ryegrass (Lolium multiflorum), blackgrass (Alopercurus mysuroides), green foxtail (Setaria viridis), and wild oats (Avena fatua). Compounds are formulated in a nonphytotoxic solvent and applied to the plants as a foliar spray or applied to the soil surface. Plants are treated at two stages: preemergence, or postemergence when the sugarbeets are at the 2-3 true leaf stage. Plants are grown in a temperature-controlled greenhouse for the duration of the test.
Weed control and crop injury are evaluated visually at 3-4 weeks after compound application, using a scale of 0 to 100%, where 0=no injury and 100=complete death of the plant. All plants are rated with respect to untreated plants (checks) grown in the greenhouse under identical conditions to the treated plants.

CTCHWD BEDSTRAW = assay type: in vivo, Galium aparine
GREEN FOXTAIL = assay type: in vivo, Setaria viridis
WILD RADISH = assay type: in vivo, Raphanus raphanistrum
CMN CHICKWEED = assay type: in vivo, Stellaria media
KOCHIA = assay type: in vivo, Kochia scoparia
ITALN. RYEGRASS = assay type: in vivo, Lolium multiflorum
ANN. BLUEGRASS = assay type: in vivo, PO annua

For C=C(c1ccc(F)cc1)C(O)(Cn1cncn1)c1ccc(F)cc1F (stereo not shown) [Example 4, 2-(2,4-Difluorophenyl)-3-(4-fluorophenyl)-1-(1H-1,2,4-triazol-1-yl)-3-buten-2-ol], the plant response (REDROOT PIGWEED; POSTEMERGENCE 0064 GM/HA) was 20%, the plant response (REDROOT PIGWEED; POSTEMERGENCE 0125 GM/HA) was 40% and the plant response (REDROOT PIGWEED; POSTEMERGENCE 0250 GM/HA) was 90%. For the same compound, the plant response (REDROOT PIGWEED; POSTEMERGENCE 0500 GM/HA) was 90%, the plant response (REDROOT PIGWEED; PREEMERGENCE 0500 GM/HA) was 100% and the plant response (WILD OATS; POSTEMERGENCE 0064 GM/HA) was 0%. The plant response (WILD OATS; POSTEMERGENCE 0125 GM/HA) was 0%, the plant response (WILD OATS; POSTEMERGENCE 0250 GM/HA) was 0% and the plant response (WILD OATS; POSTEMERGENCE 0500 GM/HA) was 30%. For the same compound, the plant response (WILD OATS; PREEMERGENCE 0500 GM/HA) was 90%, the plant response (BLACKGRASS; POSTEMERGENCE 0064 GM/HA) was 0% and the plant response (BLACKGRASS; POSTEMERGENCE 0125 GM/HA) was 20%. The plant response (BLACKGRASS; POSTEMERGENCE 0250 GM/HA) was 20%, the plant response (BLACKGRASS; POSTEMERGENCE 0500 GM/HA) was 50% and the plant response (BLACKGRASS; PREEMERGENCE 0500 GM/HA) was 90%. For the same compound, the plant response (CTCHWD BEDSTRAW; POSTEMERGENCE 0064 GM/HA) was 20%, the plant response (CTCHWD BEDSTRAW; POSTEMERGENCE 0125 GM/HA) was 20% and the plant response (CTCHWD BEDSTRAW; POSTEMERGENCE 0250 GM/HA) was 80%. It also gave a plant response (CTCHWD BEDSTRAW; POSTEMERGENCE 0500 GM/HA) of 100%, a plant response (CTCHWD BEDSTRAW; PREEMERGENCE 0500 GM/HA) of 100% and a plant response (GREEN FOXTAIL; POSTEMERGENCE 0064 GM/HA) of 0%. It also gave a plant response (GREEN FOXTAIL; POSTEMERGENCE 0125 GM/HA) of 20%, a plant response (GREEN FOXTAIL; POSTEMERGENCE 0250 GM/HA) of 20% and a plant response (GREEN FOXTAIL; POSTEMERGENCE 0500 GM/HA) of 80%. For the same compound, the plant response (GREEN FOXTAIL; PREEMERGENCE 0500 GM/HA) was 100%, the plant response (WILD RADISH; POSTEMERGENCE 0064 GM/HA) was 20% and the plant response (WILD RADISH; POSTEMERGENCE 0125 GM/HA) was 60%. For the same compound, the plant response (WILD RADISH; POSTEMERGENCE 0250 GM/HA) was 80%, the plant response (WILD RADISH; POSTEMERGENCE 0500 GM/HA) was 90% and the plant response (WILD RADISH; PREEMERGENCE 0500 GM/HA) was 50%. For the same compound, the plant response (CMN CHICKWEED; POSTEMERGENCE 0064 GM/HA) was 0%, the plant response (CMN CHICKWEED; POSTEMERGENCE 0125 GM/HA) was 0% and the plant response (CMN CHICKWEED; POSTEMERGENCE 0250 GM/HA) was 0%. It also gave a plant response (CMN CHICKWEED; POSTEMERGENCE 0500 GM/HA) of 0%, a plant response (CMN CHICKWEED; PREEMERGENCE 0500 GM/HA) of 0% and a plant response (KOCHIA; POSTEMERGENCE 0064 GM/HA) of 0%. It also gave a plant response (KOCHIA; POSTEMERGENCE 0125 GM/HA) of 30%, a plant response (KOCHIA; POSTEMERGENCE 0250 GM/HA) of 70% and a plant response (KOCHIA; POSTEMERGENCE 0500 GM/HA) of 90%. For the same compound, the plant response (KOCHIA; PREEMERGENCE 0500 GM/HA) was 100%, the plant response (ITALN. RYEGRASS; POSTEMERGENCE 0064 GM/HA) was 0% and the plant response (ITALN. RYEGRASS; POSTEMERGENCE 0125 GM/HA) was 0%. It also gave a plant response (ITALN. RYEGRASS; POSTEMERGENCE 0250 GM/HA) of 30%, a plant response (ITALN. RYEGRASS; POSTEMERGENCE 0500 GM/HA) of 80% and a plant response (ITALN. RYEGRASS; PREEMERGENCE 0500 GM/HA) of 70%. For the same compound, the plant response (ANN. BLUEGRASS; POSTEMERGENCE 0064 GM/HA) was 0%, the plant response (ANN. BLUEGRASS; POSTEMERGENCE 0125 GM/HA) was 20% and the plant response (ANN. BLUEGRASS; POSTEMERGENCE 0250 GM/HA) was 40%. The plant response (ANN. BLUEGRASS; POSTEMERGENCE 0500 GM/HA) was 60% and the plant response (ANN. BLUEGRASS; PREEMERGENCE 0500 GM/HA) was 100%.
In the case of C=C(c1ccccc1)C(O)(Cn1cncn1)c1ccc(Cl)cc1 (stereo not shown) [Example 51, 2-(4-Chlorophenyl)-3-phenyl-1-(1H-1,2,4-triazol-1-yl)-3-buten-2-ol], the plant response (REDROOT PIGWEED; POSTEMERGENCE 0064 GM/HA) is reported as 30%, the plant response (REDROOT PIGWEED; POSTEMERGENCE 0125 GM/HA) is reported as 50% and the plant response (REDROOT PIGWEED; POSTEMERGENCE 0250 GM/HA) is reported as 60%. It also gave a plant response (REDROOT PIGWEED; POSTEMERGENCE 0500 GM/HA) of 90%, a plant response (REDROOT PIGWEED; PREEMERGENCE 0500 GM/HA) of 70% and a plant response (WILD OATS; POSTEMERGENCE 0064 GM/HA) of 0%. For the same compound, the plant response (WILD OATS; POSTEMERGENCE 0125 GM/HA) was 0%, the plant response (WILD OATS; POSTEMERGENCE 0250 GM/HA) was 0% and the plant response (WILD OATS; POSTEMERGENCE 0500 GM/HA) was 0%. The plant response (WILD OATS; PREEMERGENCE 0500 GM/HA) was 20%, the plant response (BLACKGRASS; POSTEMERGENCE 0064 GM/HA) was 0% and the plant response (BLACKGRASS; POSTEMERGENCE 0125 GM/HA) was 0%. It also gave a plant response (BLACKGRASS; POSTEMERGENCE 0250 GM/HA) of 0%, a plant response (BLACKGRASS; POSTEMERGENCE 0500 GM/HA) of 0% and a plant response (BLACKGRASS; PREEMERGENCE 0500 GM/HA) of 0%. The plant response (CTCHWD BEDSTRAW; POSTEMERGENCE 0064 GM/HA) was 0%, the plant response (CTCHWD BEDSTRAW; POSTEMERGENCE 0125 GM/HA) was 0% and the plant response (CTCHWD BEDSTRAW; POSTEMERGENCE 0250 GM/HA) was 0%. For the same compound, the plant response (CTCHWD BEDSTRAW; POSTEMERGENCE 0500 GM/HA) was 50%, the plant response (CTCHWD BEDSTRAW; PREEMERGENCE 0500 GM/HA) was 0% and the plant response (GREEN FOXTAIL; POSTEMERGENCE 0064 GM/HA) was 0%. The plant response (GREEN FOXTAIL; POSTEMERGENCE 0125 GM/HA) was 0%, the plant response (GREEN FOXTAIL; POSTEMERGENCE 0250 GM/HA) was 0% and the plant response (GREEN FOXTAIL; POSTEMERGENCE 0500 GM/HA) was 0%. It also gave a plant response (GREEN FOXTAIL; PREEMERGENCE 0500 GM/HA) of 100%, a plant response (WILD RADISH; POSTEMERGENCE 0064 GM/HA) of 0% and a plant response (WILD RADISH; POSTEMERGENCE 0125 GM/HA) of 30%. It also gave a plant response (WILD RADISH; POSTEMERGENCE 0250 GM/HA) of 30%, a plant response (WILD RADISH; POSTEMERGENCE 0500 GM/HA) of 60% and a plant response (WILD RADISH; PREEMERGENCE 0500 GM/HA) of 0%. It also gave a plant response (CMN CHICKWEED; POSTEMERGENCE 0064 GM/HA) of 0%, a plant response (CMN CHICKWEED; POSTEMERGENCE 0125 GM/HA) of 0% and a plant response (CMN CHICKWEED; POSTEMERGENCE 0250 GM/HA) of 0%. The plant response (CMN CHICKWEED; POSTEMERGENCE 0500 GM/HA) was 0%, the plant response (CMN CHICKWEED; PREEMERGENCE 0500 GM/HA) was 0% and the plant response (KOCHIA; POSTEMERGENCE 0064 GM/HA) was 0%. The plant response (KOCHIA; POSTEMERGENCE 0125 GM/HA) was 0%, the plant response (KOCHIA; POSTEMERGENCE 0250 GM/HA) was 0% and the plant response (KOCHIA; POSTEMERGENCE 0500 GM/HA) was 0%. It also gave a plant response (KOCHIA; PREEMERGENCE 0500 GM/HA) of 70%, a plant response (ITALN. RYEGRASS; POSTEMERGENCE 0064 GM/HA) of 0% and a plant response (ITALN. RYEGRASS; POSTEMERGENCE 0125 GM/HA) of 20%. It also gave a plant response (ITALN. RYEGRASS; POSTEMERGENCE 0250 GM/HA) of 20%, a plant response (ITALN. RYEGRASS; POSTEMERGENCE 0500 GM/HA) of 0% and a plant response (ITALN. RYEGRASS; PREEMERGENCE 0500 GM/HA) of 0%. It also gave a plant response (ANN. BLUEGRASS; POSTEMERGENCE 0064 GM/HA) of 0%, a plant response (ANN. BLUEGRASS; POSTEMERGENCE 0125 GM/HA) of 0% and a plant response (ANN. BLUEGRASS; POSTEMERGENCE 0250 GM/HA) of 20%. For the same compound, the plant response (ANN. BLUEGRASS; POSTEMERGENCE 0500 GM/HA) was 50% and the plant response (ANN. BLUEGRASS; PREEMERGENCE 0500 GM/HA) was 20%.
